Assay results: PubChem BioAssay (NCI)
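In this assay, cells in 96-well plates receive the compound at five concentrations for 48 hours. Endpoints are linearly interpolated between the surrounding concentrations. GI50: concentration for 50% inhibition of growth. The concentration for full growth arrest is given as TGI.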

Assays:
Test in all cases: NCI anticancer screen, dose series, 48 h
DU-145 prostate = system: DU-145 prostate
XF 498 CNS = system: XF 498 CNS
LXFL 529 NSCLC = system: LXFL 529 NSCLC
HOP-18 NSCLC = system: HOP-18 NSCLC
COLO 205 colon = system: COLO 205 colon
BT-549 breast = system: BT-549 breast
DMS 273 small cell lung = system: DMS 273 small cell lung
A549 NSCLC = system: A549 NSCLC
NCI/ADR-RES ovarian = system: NCI/ADR-RES ovarian
DLD-1 colon = system: DLD-1 colon

C[CH2][Sn]([CH2]C)([O]C(=O)c1ccc(OC)c(OC)c1OC)[O]C(=O)c1ccc(OC)c(OC)c1OC
GI50 (DU-145 prostate): > 100 µM | TGI (DU-145 prostate): > 100 µM | GI50 (XF 498 CNS): 34.6 µM | TGI (XF 498 CNS): > 71.5 µM | GI50 (LXFL 529 NSCLC): 12.6 µM | TGI (LXFL 529 NSCLC): 25.3 µM | GI50 (HOP-18 NSCLC): 18.7 µM | TGI (HOP-18 NSCLC): 32.7 µM | GI50 (COLO 205 colon): 65.1 µM | TGI (COLO 205 colon): > 100 µM | GI50 (BT-549 breast): 17.2 µM | TGI (BT-549 breast): 31.1 µM | GI50 (DMS 273 small cell lung): > 100 µM | TGI (DMS 273 small cell lung): > 100 µM | GI50 (A549 NSCLC): > 100 µM | TGI (A549 NSCLC): > 100 µM | GI50 (NCI/ADR-RES ovarian): > 100 µM | TGI (NCI/ADR-RES ovarian): > 100 µM

Cc1ccccc1C1CC(c2ccccc2)=NO1 (stereo not given)
TGI (LXFL 529 NSCLC): > 100 µM | TGI (HOP-18 NSCLC): > 100 µM | TGI (COLO 205 colon): > 100 µM | TGI (DLD-1 colon): > 100 µM | TGI (DMS 273 small cell lung): > 100 µM | TGI (A549 NSCLC): > 100 µM

Cc1cc(Cl)ccc1NC(=O)C(=O)C(C(=O)c1ccccc1)C1OC(=O)c2ccccc21 (stereo not given)
TGI (XF 498 CNS): > 100 µM | TGI (LXFL 529 NSCLC): > 100 µM | TGI (HOP-18 NSCLC): > 100 µM | TGI (COLO 205 colon): > 100 µM | TGI (DLD-1 colon): > 100 µM | TGI (DMS 273 small cell lung): > 100 µM | TGI (A549 NSCLC): > 100 µM

CC(C)C1N2CCCCC2[C@@H]2c3[nH]c4ccccc4c3CCN12 (stereo not given in full)
TGI (XF 498 CNS): > 100 µM | TGI (LXFL 529 NSCLC): > 100 µM | TGI (HOP-18 NSCLC): > 100 µM | TGI (COLO 205 colon): > 100 µM | TGI (DLD-1 colon): > 100 µM | TGI (DMS 273 small cell lung): > 100 µM | TGI (A549 NSCLC): > 100 µM

CCOCc1cc(=O)c2c(OC)cc3c(c2o1)CCC(C)(C)O3
TGI (XF 498 CNS): > 100 µM | TGI (LXFL 529 NSCLC): > 100 µM | TGI (HOP-18 NSCLC): > 100 µM | TGI (DLD-1 colon): > 100 µM | TGI (A549 NSCLC): > 100 µM

COC(=O)C(/C(=N\NC(N)=S)C(=O)Nc1ccccc1[N+](=O)[O-])c1cnc2ccccc2n1 (stereo not given)
TGI (XF 498 CNS): > 100 µM | TGI (LXFL 529 NSCLC): > 100 µM | TGI (HOP-18 NSCLC): > 100 µM | TGI (COLO 205 colon): > 100 µM | TGI (DLD-1 colon): > 100 µM | TGI (DMS 273 small cell lung): > 100 µM | TGI (A549 NSCLC): > 100 µM

Cc1ccc2nc(NC(=O)/C(=N\NC(=S)NN)C3C(=O)NC(=S)NC3=O)sc2c1
TGI (XF 498 CNS): > 100 µM | TGI (LXFL 529 NSCLC): > 100 µM | TGI (HOP-18 NSCLC): > 100 µM | TGI (COLO 205 colon): > 100 µM | TGI (DLD-1 colon): > 100 µM | TGI (DMS 273 small cell lung): > 100 µM | TGI (A549 NSCLC): > 100 µM

Cc1ccc(NC(=O)OCC(COc2ccc(Cl)cc2Cl)OC(=O)Nc2ccc(C)cc2)cc1 (stereo not given)
TGI (LXFL 529 NSCLC): > 100 µM | TGI (HOP-18 NSCLC): > 100 µM | TGI (COLO 205 colon): > 100 µM | TGI (DLD-1 colon): > 100 µM | TGI (DMS 273 small cell lung): > 100 µM | TGI (A549 NSCLC): > 100 µM

CCOP1(=O)C=C(C)C(=C(Cl)Cl)C(C)=C1 (stereo not given)
TGI (XF 498 CNS): 35.7 µM | GI50 (LXFL 529 NSCLC): 5.53 µM | TGI (LXFL 529 NSCLC): 24.1 µM | TGI (HOP-18 NSCLC): 46.9 µM | TGI (COLO 205 colon): 29 µM | TGI (DLD-1 colon): 78.5 µM | TGI (A549 NSCLC): 58.8 µM
